# Activity calls are given as the source filed them.
# Key:
# [1] = target: Albumin (Bos taurus, UniProt P02769); assay: Counterscreen for inhibitors of T-cell receptor (TCR)-CD3 interaction: Fluorescence-based biochemical high throughput dose response assay to identify inhibitors of T-cell receptor (TCR)-CD3 interaction using a TAMRA-labeled BSA probe.; format: functional
# [2] = target: NS3 (Hepatitis C virus, UniProt A3EZJ3); assay: PubChem AID 2173; design: species or system Hepacivirus hominis
# [3] = target: T1, Induced myeloid leukemia cell differentiation protein Mcl-1 (Homo sapiens, UniProt Q07820); format: functional
# [4] = NIH:OVCAR-3 ovarian cancer cell cytotoxicity, dose response, PAX8 inhibitor project, plate reader, dry powder samples (AID 743044); format: functional, cell-based
# [5] = target: Paired box protein Pax-8 (Homo sapiens, UniProt Q06710); assay: inhibitors of PAX8-driven TPO luciferase reporter, dose response, RMG-I cells, cherry-pick (AID 687027); format: functional, cell-based;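 also: luciferase reporter driven by Pax8 target thyroperoxidase promoter measured by SteadyGlo luminescence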
# [6] = cytotoxicity in OVCAR8 ovarian cancer cells, dose response, PAX8 project, cell-based, plate reader, dry powder samples (AID 743197); format: functional; conditions: OVCAR-8
# [7] = IGROV1 ovarian cancer cell cytotoxicity, dose response, PAX8 inhibitor project, plate reader, dry powder samples (AID 743043); format: functional, cell-based; conditions: IGROV-1
# [8] = target: Disintegrin and metalloproteinase domain-containing protein 17 (Homo sapiens, UniProt P78536); assay: ADAM17 protease inhibitors, dose response, counter-screen for ADAM10 exosite inhibitor project, biochemical, quenched FRET substrate (AID 743253)
# [9] = ADAM10 inhibitors, peptide cleavage, dose response, biochemical, QFRET (AID 743254);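 also: ADAM10 enzyme with the DM2 quenched FRET peptide as substrate; EDANS fluorescence gain as the protease cuts the substrate; inhibitor potency against ADAM10 proteolytic activity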
# [10] = target: Peroxisome proliferator-activated receptor gamma/Nuclear receptor coactivator 1 (Homo sapiens, UniProt P37231); format: functional;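 also: agonist potency as compounds enhance coactivator SRC-1 recruitment to PPARgamma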
# [11] = target: Peroxisome proliferator-activated receptor gamma/Nuclear receptor coactivator 2 (Homo sapiens, UniProt P37231); format: functional;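 also: agonist potency for raising coactivator recruitment to the receptor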
# [12] = target: Peroxisome proliferator-activated receptor gamma/Nuclear receptor coactivator 3 (Homo sapiens, UniProt P37231); format: functional;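 also: agonist potency for raising coactivator recruitment to the receptor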
# [13] = target: fMet-Leu-Phe receptor (Homo sapiens, UniProt P21462); assay: FPR ligands, dose response (AID 519); format: functional
# [14] = TRPM1 promoter luciferase reporter signal decrease, dose response, MITF inhibitor project, cell-based, SK-MEL-5, dry powder, set 8 (AID 624430); format: functional
# [15] = MITF Orthogonal Assay: SK-MEL-5 CTG Assay Measured in Cell-Based System Using Plate Reader - 2084-02_Inhibitor_Dose_DryPowder_Activity_Set7.; format: functional
# [16] = MITF: Counter assay: A375 proliferation Measured in Cell-Based System Using Plate Reader - 2084-03_Inhibitor_Dose_DryPowder_Activity_Set8.; format: functional; conditions: A-375
# [17] = control 3'UTR Renilla luciferase suppression, dose response, counter-screen for Shn3 inhibitor project, cell-based, Clone20-Shn3RL, cherry-picked (AID 624133); format: functional
# [18] = inhibitors of PGC1a acetylation in cells, dose response, cell-based, cherry-picked samples (AID 720514); format: functional;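 also: potency may reflect raised or lowered acetylation signal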
# [19] = miR-122 activators in hepatoma reporter cells, dose response, cell-based, Huh7 psiCHECK-miR122, Renilla luciferase, cherry-picked (AID 651956); format: functional;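 also: huh7 hepatoma cells stably carrying a psiCHECK-2 miR-122 sensor plasmid; renilla luciferase signal reporting endogenous miR-122 activity after 48 h compound exposure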
# [20] = HEK293T cytotoxicity, dose response, cytotoxicity control for miR-122 modulator project, cell-based, inhibitor set, cherry-pick, set 2 (AID 720697); format: functional
# [21] = HepG2 cell cytotoxicity, dose response, cytotoxicity control for Shn3 inhibitor project, CellTiter-Glo, cherry-picked (AID 624134); format: functional, cell-based
# [22] = system: HEK293; assay: inhibitors of LMP1-driven NF-kB reporter, dose response, cell-based, HEK293, luciferase, cherry-pick (AID 588343); format: functional; conditions: Homo sapiens
# [23] = HEK293T cytotoxicity, dose response, cytotoxicity control for miR-122 modulator project, cell-based, activator set, cherry-pick (AID 720690); format: functional;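 also: HEK293T human cells scored for general mammalian cytotoxicity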
# [24] = Shn3 3'UTR reporter inhibitors, dose response, cell-based, Clone20 osteoblasts, firefly luciferase, cherry-picked (AID 624132); format: functional;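 also: firefly luciferase luminescence from reporter carrying the Shn3 3'UTR in osteoblasts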
# [25] = HIV-1 Env-mediated cell fusion inhibitors, dose response, CCR5-tropic Env (AID 2279); format: functional
# [26] = A375 melanoma cell viability loss, dose response, counter-screen for MITF inhibitor project, CellTiter-Glo luminescence, dry powder, set 4 (AID 624364); format: functional, cell-based; conditions: A-375;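 also: A375 melanoma cells are MITF independent so this is a counter screen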
# [27] = A375 melanoma cell cytotoxicity, dose response, counter-screen for MITF inhibitor project, CellTiter-Glo luminescence, dry powder, set 2 (AID 624489); format: functional, cell-based; conditions: A-375;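 also: actives are compounds lowering A375 viability meaning general cytotoxicity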
# [28] = target: T2, Tyrosine-protein phosphatase non-receptor type 7 (Homo sapiens, UniProt P35236); assay: inhibitors of human HePTP phosphatase, […], biochemical, absorbance, leukemia target (AID 521); format: functional
# T2 sequence (P35236 whole entry): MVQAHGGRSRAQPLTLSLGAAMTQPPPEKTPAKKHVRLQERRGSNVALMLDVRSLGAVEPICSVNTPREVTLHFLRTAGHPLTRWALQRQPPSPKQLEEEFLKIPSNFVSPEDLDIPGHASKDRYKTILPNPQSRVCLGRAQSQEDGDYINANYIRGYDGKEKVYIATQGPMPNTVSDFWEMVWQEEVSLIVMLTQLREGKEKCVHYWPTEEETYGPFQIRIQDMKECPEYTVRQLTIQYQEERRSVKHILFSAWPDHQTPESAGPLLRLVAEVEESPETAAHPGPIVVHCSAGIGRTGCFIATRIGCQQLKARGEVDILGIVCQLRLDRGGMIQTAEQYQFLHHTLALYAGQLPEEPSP
# [29] = Dose-response inhibition of insulin secretion in a rat insulinoma line at 5 mM glucose (AID 1117331); format: functional, cell-based; conditions: INS-1E
# [30] = T. cruzi growth inhibition in host cells, dose response, cell-based, plate reader, dry powder, set 2 (AID 652275); format: functional
# [31] = target: Eukaryotic translation initiation factor 4E (Mus musculus, UniProt P63073); assay: eIF4E–eIF4G protein interaction inhibitors, dose response, biochemical, TR-FRET (AID 855); format: functional;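 also: potency for disrupting eIF4E binding to eIF4GI seen as loss of FRET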
# [32] = target: Bcl-2-like protein 1 (Homo sapiens, UniProt Q07817); assay: BCL-XL inhibitors, dose response, selectivity assay for MCL1 inhibitor project, biochemical, fluorescence polarization, 1536-well (AID 2218)
# [33] = target: T3, Genome polyprotein (Hepatitis C virus, UniProt Q2Q167); assay: HCV core protein dimerization inhibitors, dose response, biochemical, TR-FRET (AID 2159); design: species or system Hepacivirus hominis;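 also: blocks dimerization of HCV core protein measured by TR-FRET between tagged core106 pairs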
# T3 sequence (Q2Q167 whole entry): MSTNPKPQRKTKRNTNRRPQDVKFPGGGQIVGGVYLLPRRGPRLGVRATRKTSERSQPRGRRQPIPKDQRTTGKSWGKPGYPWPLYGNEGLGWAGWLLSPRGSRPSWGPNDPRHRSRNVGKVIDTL
# [34] = target: T1, Induced myeloid leukemia cell differentiation protein Mcl-1; assay: MCL1-BIM BH3 interaction inhibitors, dose response, biochemical, fluorescence polarization, BIM-BH3 peptide, 1536-well (AID 2217)
# [35] = THP-1 cell cytotoxicity, dose response, cytotoxicity control for Vif-APOBEC3G degradation inhibitor project, THP-1 cells (AID 1117359); format: functional; conditions: Human immunodeficiency virus 1, THP-1
# [36] = target: T4, DNA repair protein RAD52 homolog (Homo sapiens, UniProt P43351); format: functional, biochemical
# T4 sequence (P43351 whole entry): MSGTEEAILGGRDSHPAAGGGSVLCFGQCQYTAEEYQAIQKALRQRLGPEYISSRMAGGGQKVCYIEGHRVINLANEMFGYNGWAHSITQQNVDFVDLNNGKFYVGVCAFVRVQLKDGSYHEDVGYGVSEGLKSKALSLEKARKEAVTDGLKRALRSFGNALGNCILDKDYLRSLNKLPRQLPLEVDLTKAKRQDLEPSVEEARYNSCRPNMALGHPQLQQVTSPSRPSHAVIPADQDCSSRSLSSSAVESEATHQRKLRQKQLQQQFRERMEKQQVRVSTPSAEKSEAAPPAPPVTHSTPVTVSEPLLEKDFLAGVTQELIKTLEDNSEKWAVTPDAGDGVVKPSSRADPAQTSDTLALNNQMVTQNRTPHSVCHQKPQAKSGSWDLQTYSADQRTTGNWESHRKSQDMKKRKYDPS
# [37] = P. falciparum Dd2 growth inhibitors, dose response, SYBR Green, dry powder samples, set 9 (AID 1159568); format: functional, cell-based
# T1 sequence (Q07820 whole entry): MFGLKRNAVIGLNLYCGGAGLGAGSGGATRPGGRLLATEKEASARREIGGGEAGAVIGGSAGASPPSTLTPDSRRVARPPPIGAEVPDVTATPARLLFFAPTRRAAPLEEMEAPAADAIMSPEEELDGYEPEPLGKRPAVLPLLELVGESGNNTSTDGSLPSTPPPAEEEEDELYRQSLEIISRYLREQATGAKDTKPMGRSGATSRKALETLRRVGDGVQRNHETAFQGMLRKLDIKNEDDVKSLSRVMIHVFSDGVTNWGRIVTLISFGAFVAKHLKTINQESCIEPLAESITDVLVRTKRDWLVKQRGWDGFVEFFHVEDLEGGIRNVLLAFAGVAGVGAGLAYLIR
# Paired box protein Pax-8, sequence (Q06710 whole entry): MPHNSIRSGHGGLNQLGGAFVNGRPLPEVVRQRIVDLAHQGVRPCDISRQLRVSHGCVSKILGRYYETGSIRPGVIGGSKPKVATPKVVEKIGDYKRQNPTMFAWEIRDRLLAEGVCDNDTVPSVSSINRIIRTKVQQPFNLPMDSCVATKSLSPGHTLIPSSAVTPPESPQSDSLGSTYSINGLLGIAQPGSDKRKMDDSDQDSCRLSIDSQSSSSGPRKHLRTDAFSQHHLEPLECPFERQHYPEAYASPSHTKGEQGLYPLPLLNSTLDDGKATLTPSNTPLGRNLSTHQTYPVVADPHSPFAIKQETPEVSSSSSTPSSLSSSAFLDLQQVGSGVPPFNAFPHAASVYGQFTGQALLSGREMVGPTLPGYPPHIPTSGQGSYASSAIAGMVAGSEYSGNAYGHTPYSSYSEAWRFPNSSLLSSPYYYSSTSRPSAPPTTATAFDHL
# Peroxisome proliferator-activated receptor gamma/Nuclear receptor coactivator 1, sequence (P37231 whole entry): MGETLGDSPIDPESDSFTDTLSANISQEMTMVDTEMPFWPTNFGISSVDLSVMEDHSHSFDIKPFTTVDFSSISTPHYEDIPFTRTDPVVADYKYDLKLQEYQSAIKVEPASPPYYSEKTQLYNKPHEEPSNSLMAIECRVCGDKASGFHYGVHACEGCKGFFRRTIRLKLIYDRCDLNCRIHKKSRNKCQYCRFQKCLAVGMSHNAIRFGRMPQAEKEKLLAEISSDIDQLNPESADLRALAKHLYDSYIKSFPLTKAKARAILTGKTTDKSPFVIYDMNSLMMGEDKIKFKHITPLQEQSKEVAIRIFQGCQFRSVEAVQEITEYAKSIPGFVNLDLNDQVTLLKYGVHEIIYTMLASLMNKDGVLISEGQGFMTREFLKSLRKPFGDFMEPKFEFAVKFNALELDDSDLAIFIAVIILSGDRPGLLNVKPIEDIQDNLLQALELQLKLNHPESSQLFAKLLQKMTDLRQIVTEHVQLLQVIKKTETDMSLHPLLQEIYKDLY
# Peroxisome proliferator-activated receptor gamma/Nuclear receptor coactivator 1, sequence (Q15788 whole entry, further chain): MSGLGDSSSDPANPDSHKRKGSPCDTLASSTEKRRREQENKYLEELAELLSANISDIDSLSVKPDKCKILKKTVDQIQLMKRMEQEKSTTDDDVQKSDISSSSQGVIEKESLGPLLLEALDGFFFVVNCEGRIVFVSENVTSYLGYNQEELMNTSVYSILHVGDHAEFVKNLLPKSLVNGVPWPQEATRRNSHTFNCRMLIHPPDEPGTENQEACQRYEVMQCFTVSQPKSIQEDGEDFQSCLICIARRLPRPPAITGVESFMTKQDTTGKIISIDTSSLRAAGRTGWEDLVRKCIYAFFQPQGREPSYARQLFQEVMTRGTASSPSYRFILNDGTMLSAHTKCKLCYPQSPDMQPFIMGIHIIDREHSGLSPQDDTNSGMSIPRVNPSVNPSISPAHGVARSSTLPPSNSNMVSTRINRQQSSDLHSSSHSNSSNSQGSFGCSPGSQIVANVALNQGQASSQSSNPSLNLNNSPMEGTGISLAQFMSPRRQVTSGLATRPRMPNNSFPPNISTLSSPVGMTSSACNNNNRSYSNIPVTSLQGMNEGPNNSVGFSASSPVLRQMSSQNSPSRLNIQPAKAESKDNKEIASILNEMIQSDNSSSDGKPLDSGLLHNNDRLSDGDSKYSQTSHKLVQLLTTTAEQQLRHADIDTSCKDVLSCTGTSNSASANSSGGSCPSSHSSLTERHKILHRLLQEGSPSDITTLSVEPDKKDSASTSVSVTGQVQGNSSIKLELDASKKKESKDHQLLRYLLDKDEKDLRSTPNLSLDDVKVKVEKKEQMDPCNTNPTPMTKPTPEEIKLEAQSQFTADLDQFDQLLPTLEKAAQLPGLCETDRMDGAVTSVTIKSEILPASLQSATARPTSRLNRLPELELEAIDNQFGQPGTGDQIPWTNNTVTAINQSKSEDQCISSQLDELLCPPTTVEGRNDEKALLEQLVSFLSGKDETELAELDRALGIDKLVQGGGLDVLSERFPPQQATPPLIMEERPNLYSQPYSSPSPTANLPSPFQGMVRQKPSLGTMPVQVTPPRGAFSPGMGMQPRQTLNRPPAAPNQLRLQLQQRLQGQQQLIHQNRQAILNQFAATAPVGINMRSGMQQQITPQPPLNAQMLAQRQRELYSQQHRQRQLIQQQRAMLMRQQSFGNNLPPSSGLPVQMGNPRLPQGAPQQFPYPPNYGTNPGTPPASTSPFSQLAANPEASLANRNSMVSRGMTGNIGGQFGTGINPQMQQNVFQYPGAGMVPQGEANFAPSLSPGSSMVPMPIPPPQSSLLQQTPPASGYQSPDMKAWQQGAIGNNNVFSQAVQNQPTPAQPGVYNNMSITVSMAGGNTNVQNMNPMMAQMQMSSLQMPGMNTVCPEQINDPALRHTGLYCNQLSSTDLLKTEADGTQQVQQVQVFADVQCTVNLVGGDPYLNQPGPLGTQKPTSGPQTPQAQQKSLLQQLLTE
# Peroxisome proliferator-activated receptor gamma/Nuclear receptor coactivator 3, sequence (P37231 whole entry): as the sequence (P37231 whole entry) above
# Peroxisome proliferator-activated receptor gamma/Nuclear receptor coactivator 3, sequence (Q9Y6Q9 whole entry, further chain): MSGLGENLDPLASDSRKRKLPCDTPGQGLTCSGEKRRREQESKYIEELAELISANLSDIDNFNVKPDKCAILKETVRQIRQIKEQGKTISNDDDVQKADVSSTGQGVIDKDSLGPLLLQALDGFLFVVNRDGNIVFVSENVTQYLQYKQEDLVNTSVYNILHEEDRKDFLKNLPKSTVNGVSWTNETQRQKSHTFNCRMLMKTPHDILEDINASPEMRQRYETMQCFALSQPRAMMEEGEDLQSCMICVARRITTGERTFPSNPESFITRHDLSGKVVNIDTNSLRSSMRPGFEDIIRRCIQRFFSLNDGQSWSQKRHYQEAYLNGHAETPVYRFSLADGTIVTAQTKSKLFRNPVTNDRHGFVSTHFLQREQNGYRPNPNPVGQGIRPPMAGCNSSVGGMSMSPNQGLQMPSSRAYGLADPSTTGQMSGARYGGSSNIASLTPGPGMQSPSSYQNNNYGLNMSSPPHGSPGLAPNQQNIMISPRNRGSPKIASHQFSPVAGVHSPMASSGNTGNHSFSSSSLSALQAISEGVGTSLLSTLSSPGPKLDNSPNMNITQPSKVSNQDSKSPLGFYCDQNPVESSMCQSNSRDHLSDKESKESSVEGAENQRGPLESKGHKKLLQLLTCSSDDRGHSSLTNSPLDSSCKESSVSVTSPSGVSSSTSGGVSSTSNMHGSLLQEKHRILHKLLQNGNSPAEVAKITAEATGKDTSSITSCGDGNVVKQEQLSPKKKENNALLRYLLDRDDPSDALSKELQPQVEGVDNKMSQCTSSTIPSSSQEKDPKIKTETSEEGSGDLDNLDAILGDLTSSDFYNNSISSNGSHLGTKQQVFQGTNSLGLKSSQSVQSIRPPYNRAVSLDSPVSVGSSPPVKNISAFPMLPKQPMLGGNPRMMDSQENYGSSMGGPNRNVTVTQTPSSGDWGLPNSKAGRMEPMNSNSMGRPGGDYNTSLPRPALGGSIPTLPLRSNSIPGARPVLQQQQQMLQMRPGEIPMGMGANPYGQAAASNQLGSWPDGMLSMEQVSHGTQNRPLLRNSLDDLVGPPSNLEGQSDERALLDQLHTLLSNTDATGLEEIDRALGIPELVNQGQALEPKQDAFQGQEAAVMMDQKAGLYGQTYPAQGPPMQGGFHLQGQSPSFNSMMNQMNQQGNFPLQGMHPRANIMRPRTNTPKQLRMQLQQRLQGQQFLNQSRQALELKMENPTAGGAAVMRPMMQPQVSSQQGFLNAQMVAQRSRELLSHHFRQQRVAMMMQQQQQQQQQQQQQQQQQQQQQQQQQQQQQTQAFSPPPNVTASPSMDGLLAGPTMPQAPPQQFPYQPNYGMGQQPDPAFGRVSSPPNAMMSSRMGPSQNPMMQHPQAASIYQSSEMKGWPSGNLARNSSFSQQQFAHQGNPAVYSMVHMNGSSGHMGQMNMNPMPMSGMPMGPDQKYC
# Eukaryotic translation initiation factor 4E, sequence (P63073 whole entry): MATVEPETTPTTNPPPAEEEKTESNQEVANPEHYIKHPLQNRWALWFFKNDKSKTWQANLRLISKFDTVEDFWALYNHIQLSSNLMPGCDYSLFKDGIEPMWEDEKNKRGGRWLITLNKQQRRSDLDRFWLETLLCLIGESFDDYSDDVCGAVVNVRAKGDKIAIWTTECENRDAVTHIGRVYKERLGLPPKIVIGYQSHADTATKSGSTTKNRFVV
structure (smiles),measurement,setting,value
Nc1c(C(=O)NCC2CCCO2)sc2nc3c(c(-c4ccco4)c12)CC/C3=C\c1ccco1 (configuration not stated),IC50,[1],> 94.1 µM (inactive)
same,IC50,[2],3.91 µM (active)
same,IC50,[3],1.22 µM (active)
C[C@@H]1CN([C@@H](C)CO)C(=O)c2cc(NC(=O)Nc3ccc(C(F)(F)F)cc3)ccc2O[C@@H](C)CCCCO[C@H]1CN(C)Cc1ccc2c(c1)OCO2,AC50,[4],9.82 µM (active)
same,AC50,[5],14.3 µM (active)
same,AC50,[6],24 µM (active)
same,AC50,[7],29 µM (active)
CC1(Cc2ccc(Cl)c(Cl)c2)C(=O)Nc2ccc(S(=O)(=O)NC3CCCCC3)cc21 (configuration not stated),IC50,[8],> 69.5 µM (inactive)
same,IC50,[9],8.03 µM (active)
O=C(N/N=C/c1cnc(N2CCCCC2)s1)c1ccc(Cl)cc1,EC50,[10],> 79.4 µM (not active)
same,EC50,[11],> 79.4 µM (not active)
same,EC50,[12],> 79.4 µM (not active)
O=C(C1=C(O)C(=O)N(CCOCCO)C1c1cccs1)c1cccs1 (configuration not stated),Ki,[13],21.4 µM (inactive)
O=C1C(Nc2ccc(Cl)c(Cl)c2)=C(N2CCCC2)C(=O)c2ccccc21,AC50,[14],8.91 µM (active)
same,AC50,[15],29.2 µM (active)
same,AC50,[16],> 70 µM (inactive)
CCN1CCN(Cc2ccc(NC(=O)c3ccc(C)c(NC(=O)c4cnc5cc(C(F)(F)F)ccc5c4O)c3)cc2C(F)(F)F)CC1,AC50,[17],6.23 µM (active)
same,AC50,[18],5.48 µM (active)
same,AC50,[19],5.11 µM (active)
same,AC50,[20],4.86 µM (active)
same,AC50,[21],5.71 µM (active)
same,AC50,[22],2.74 µM (active)
same,AC50,[23],4.48 µM (active)
same,AC50,[24],3.13 µM (active)
CC(O)(c1cccc(F)c1)c1nc(/C=C/c2ccccc2)cs1 (configuration not stated),IC50,[8],> 69.5 µM (inactive)
same,IC50,[9],25 µM (inactive)
COCCN1C(=O)/C(=C/c2ccc(OCc3ccc(C(=O)O)cc3)c(OC)c2)S/C1=N\c1ccccc1,IC50,[25],40.2 µM (active)
O=C(NCc1nnc(S)n1-c1ccc(Br)cc1)c1ccc(S(=O)(=O)N2CCOCC2)cc1,EC50,[10],> 79.4 µM (not active)
same,EC50,[11],> 79.4 µM (not active)
same,EC50,[12],> 79.4 µM (not active)
O=C(NC1=C(N2CCSCC2)C(=O)c2ccccc2C1=O)c1ccccc1,AC50,[26],40.7 µM (active)
same,AC50,[27],26.9 µM (active)
C[C@H](CO)N1C[C@H](C)[C@H](CN(C)C(=O)NC2CCCCC2)Oc2cc(C#Cc3ccc(F)cc3)ccc2S1(=O)=O,AC50,[5],7.83 µM (active)
same,AC50,[18],12.8 µM (active)
O=C(NCCCN1CCCC1=O)c1ccc(Cl)c(NS(=O)(=O)c2ccc(F)cc2)c1,IC50,[28],> 100 µM (not active)
CC(C(O)c1ccccc1)N(C)CCOC(c1ccccc1)c1ccccc1 (configuration not stated) [DIFETEROL],IC50,[29],> 33.3 µM (inactive)
C=CCSc1nsc(N)n1,IC50,[28],> 100 µM (not active)
O=C(CN1CCOCC1)N1CCCCN2[C@@H](CO)[C@H](c3ccc(-c4ccccc4F)cc3)[C@@H]2C1,AC50,[30],0.84 µM (active)
O=C1C(Nc2ccc(F)cc2F)=C(N2CCCC2)C(=O)c2ccccc21,AC50,[14],0.677 µM (active)
same,AC50,[15],2.35 µM (active)
same,AC50,[16],8.05 µM (active)
O=C(NC1=C(N2CCOCC2)C(=O)c2ccccc2C1=O)c1ccccc1,AC50,[26],34.6 µM (active)
same,AC50,[27],31.9 µM (active)
COc1ccc(Cc2nnc(NC(=O)Cc3cccs3)s2)cc1OC,IC50,[31],19.1 µM (active)
same,IC50,[32],> 109 µM (not active)
same,IC50,[33],> 49.8 µM (not active)
same,IC50,[34],5.14 µM (active)
same,IC50,[3],1.97 µM (active)
CC(C)N1C[C@H](C)[C@@H](CN(C)Cc2ccc(Oc3ccccc3)cc2)Oc2c(C(=O)Nc3ccncc3)cccc2C1=O,AC50,[30],0.167 µM (active)
CC1=CC(C)(C)N=C(Nc2nc(C)c3cc(C)cc(C)c3n2)N1,CC50,[35],37.6 µM (active)
same,AC50,[36],5.16 µM (active)
N#C[C@@H]1[C@H](c2ccccc2C2=CCCCC2)[C@H](CO)N1S(=O)(=O)c1ccccc1,AC50,[37],13.1 µM (active)
